Source: patent US20140005163A1 (NOVARTIS AG, priority 2010, published 2014)

Assays:
[1] = system: PKB Ser473 phosphorylation in Rat1-myr-HA-p110 delta cells; assay: Reverse protein array assay, PKB Ser473 phosphorylation in Rat1-myr-p110 delta cells; assay type: cell-based; settings: read-out: p-PKB IC50
Procedure, shortened: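 Measured: PKB Ser473 phosphorylation by reverse protein array in Rat1 cells expressing myr-HA-p110 alpha, beta or delta, after 30 min compound treatment at 37 °C with 0.2% DMSO vehicle.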

mTOR = target: T1, mTOR (Homo sapiens, UniProt P42345); assay: Biochemical assay for m-TOR by TR-FRET; settings: 8 μM ATP, 400 nM GFP-4EBP1, 0.5 nM mTOR
T1 construct: purchased Invitrogen Corporation (Carlsbad/CA, USA) PV4753
T1 sequence (P42345 1360-2549 limits assumed): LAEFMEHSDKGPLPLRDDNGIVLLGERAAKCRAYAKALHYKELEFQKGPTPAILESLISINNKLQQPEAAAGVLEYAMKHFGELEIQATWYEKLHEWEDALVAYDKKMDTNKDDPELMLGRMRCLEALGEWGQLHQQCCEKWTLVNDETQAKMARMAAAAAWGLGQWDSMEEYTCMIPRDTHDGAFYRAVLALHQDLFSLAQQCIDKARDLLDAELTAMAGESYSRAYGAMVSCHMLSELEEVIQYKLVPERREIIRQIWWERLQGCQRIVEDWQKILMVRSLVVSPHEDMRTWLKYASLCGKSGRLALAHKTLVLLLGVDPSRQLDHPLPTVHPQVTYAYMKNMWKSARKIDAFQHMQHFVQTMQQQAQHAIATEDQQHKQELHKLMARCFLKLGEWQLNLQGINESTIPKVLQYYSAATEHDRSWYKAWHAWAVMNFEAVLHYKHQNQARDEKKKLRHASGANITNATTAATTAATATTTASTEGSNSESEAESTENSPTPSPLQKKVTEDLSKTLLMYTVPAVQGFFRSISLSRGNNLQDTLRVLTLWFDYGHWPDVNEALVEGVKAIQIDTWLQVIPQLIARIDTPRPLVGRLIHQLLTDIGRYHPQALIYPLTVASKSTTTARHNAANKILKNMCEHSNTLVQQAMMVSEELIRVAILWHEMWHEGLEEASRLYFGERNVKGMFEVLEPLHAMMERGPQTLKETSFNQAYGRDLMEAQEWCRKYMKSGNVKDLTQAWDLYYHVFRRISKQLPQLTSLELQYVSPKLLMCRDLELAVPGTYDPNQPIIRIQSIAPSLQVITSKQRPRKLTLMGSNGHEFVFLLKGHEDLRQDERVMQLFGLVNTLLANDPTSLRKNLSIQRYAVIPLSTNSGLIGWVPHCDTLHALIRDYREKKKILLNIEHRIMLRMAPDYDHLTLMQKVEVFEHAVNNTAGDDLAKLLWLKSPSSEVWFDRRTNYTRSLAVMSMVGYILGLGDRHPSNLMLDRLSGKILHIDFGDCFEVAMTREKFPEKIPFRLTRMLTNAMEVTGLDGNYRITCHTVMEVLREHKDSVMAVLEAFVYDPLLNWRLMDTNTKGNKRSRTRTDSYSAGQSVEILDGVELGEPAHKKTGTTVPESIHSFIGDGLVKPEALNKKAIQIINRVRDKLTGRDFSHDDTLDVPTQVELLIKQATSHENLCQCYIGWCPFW
Procedure, shortened: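 Steps: ATP (8 μM final) plus GFP-4EBP1 (400 nM final) combined with mTOR (0.5 nM final), incubated at rt; buffer HEPES pH 7.5 with 10 mM MnCl2, NaCl, EGTA, DTT. Then stopped with EDTA/Tb3+-anti-p4EBP1 pT46 Ab (0.5 nM). Plates read after 15 min.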

[2] = system: S6 Ribosomal Protein phosphorylation Ser235/236 in TSC1 null mouse embryo fibroblast (MEF) cells; assay: Reverse protein array assay, S6 Ribosomal Protein phosphorylation Ser235/236 in TSC1 null MEF cells; assay type: cell-based; settings: 1 h, pS6 ribosomal protein Ser235/236, 60 minutes incubation, read-out: p-S6 IC50
Procedure, shortened: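 TSC1−/− MEFs, seeded and held ≥20 h at 37 °C/5% CO2, were exposed to 8-step serial compound dilutions (0.02% DMSO final; DMSO vehicle control) for 60 min at 37 °C. Cells were then lysed on ice for 10 min and lysates spotted onto reverse protein array chips.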

| IC50 [1] [nM] | IC50 (mTOR) [nM] | Structure (SMILES) | IC50 [2] [nM] |
| --- | --- | --- | --- |
| 18 | 5 | COc1ncc(-c2ccc3ncc4c(c3c2)n(-c2cn(C)nc2C)c(=O)n4C)cc1N [Example 127, 8-(5-Amino-6-methoxy-pyridin-3-yl)-1-(1,3-dimethyl-1H-pyrazol-4-yl)-3-methyl-1,3-dihydro-imidazo[4,5-c]quinolin-2-one] | 3 |
| 46 | 5 | Cc1nn(C)cc1-n1c(=O)n(C)c2cnc3ccc(-c4cnc5ccn(C)c5c4)cc3c21 [Example 129, 1-(1,3-Dimethyl-1H-pyrazol-4-yl)-3-methyl-8-(1-methyl-1H-pyrrolo[3,2-b]pyridin-6-yl)-1,3-dihydro-imidazo[4,5-c]quinolin-2-one] | 1 |
| 35 | 27 | CNc1ncc(-c2ccc3ncc4c(c3c2)n(-c2cn(C(C)C)nc2C)c(=O)n4C)cc1F [Example 141.3, 8-(5-Fluoro-6-methylamino-pyridin-3-yl)-1-(1-isopropyl-3-methyl-1H-pyrazol-4-yl)-3-methyl-1,3-dihydro-imidazo[4,5-c]quinolin-2-one] | 2 |
| 23 | 17 | Cc1nn(C(C)C)cc1-n1c(=O)n(C)c2cnc3ccc(-c4cnc(N)c(F)c4)cc3c21 [Example 142.3, 8-(6-Amino-5-fluoro-pyridin-3-yl)-1-(1-isopropyl-3-methyl-1H-pyrazol-4-yl)-3-methyl-1,3-dihydro-imidazo[4,5-c]quinolin-2-one] | 1 |
| 84 | 274 | CNc1ncc(-c2ccc3ncc4c(c3c2)n(-c2c(C)nn(C)c2C)c(=O)n4C)cc1C(F)(F)F [Example 144.1, 3-Methyl-8-(6-methylamino-5-trifluoromethyl-pyridin-3-yl)-1-(1,3,5-trimethyl-1H-pyrazol-4-yl)-1,3-dihydro-imidazo[4,5-c]quinolin-2-one] | 2 |
| 90 | 95 | Cc1nn(C)c(C)c1-n1c(=O)n(C)c2cnc3ccc(-c4cnc(N)c(Cl)c4)cc3c21 [Example 148.1, 8-(6-Amino-5-chloro-pyridin-3-yl)-3-methyl-1-(1,3,5-trimethyl-1H-pyrazol-4-yl)-1,3-dihydro-imidazo[4,5-c]quinolin-2-one] | 22 |
| 12 | 9 | Cc1nn(C)cc1-n1c(=O)n(C)c2cnc3ccc(-c4cnc(N)c(Cl)c4)cc3c21 [Example 148.2, 8-(6-Amino-5-chloro-pyridin-3-yl)-1-(1,3-dimethyl-1H-pyrazol-4-yl)-3-methyl-1,3-dihydro-imidazo[4,5-c]quinolin-2-one] | 1 |
| 19 | 3 | CCNc1cc(-c2ccc3ncc4c(c3c2)n(-c2cn(C)nc2C)c(=O)n4C)cnc1CO [Example 155.1, 1-(1,3-Dimethyl-1H-pyrazol-4-yl)-8-(5-ethylamino-6-hydroxymethyl-pyridin-3-yl)-3-methyl-1,3-dihydro-imidazo[4,5-c]quinolin-2-one] | 2 |
| 13 | 12 | CCNc1cc(-c2ccc3ncc4c(c3c2)n(-c2cn(CC)nc2C)c(=O)n4C)cnc1CO [Example 155.2, 8-(5-Ethylamino-6-hydroxymethyl-pyridin-3-yl)-1-(1-ethyl-3-methyl-1H-pyrazol-4-yl)-3-methyl-1,3-dihydro-imidazo[4,5-c]quinolin-2-one] | 1 |
| 15 | 4 | CNc1cc(-c2ccc3ncc4c(c3c2)n(-c2cn(C(C)C)nc2C)c(=O)n4C)cnc1CO [Example 158.2, 8-(6-Hydroxymethyl-5-methylamino-pyridin-3-yl)-1-(1-isopropyl-3-methyl-1H-pyrazol-4-yl)-3-methyl-1,3-dihydro-imidazo[4,5-c]quinolin-2-one] | 1 |
| < 5 | 12 | CNc1cc(-c2ccc3ncc4c(c3c2)n(-c2cn(C)nc2Cl)c(=O)n4C)cnc1CO [Example 158.3, 1-(3-Chloro-1-methyl-1H-pyrazol-4-yl)-8-(6-hydroxymethyl-5-methylamino-pyridin-3-yl)-3-methyl-1,3-dihydro-imidazo[4,5-c]quinolin-2-one] | < 0.5 |
| 12 | < 3 | CNc1cc(-c2ccc3ncc4c(c3c2)n(-c2cn(C)nc2C)c(=O)n4C)cnc1C [Example 163, 1-(1,3-Dimethyl-1H-pyrazol-4-yl)-3-methyl-8-(6-methyl-5-methylamino-pyridin-3-yl)-1,3-dihydro-imidazo[4,5-c]quinolin-2-one] | 2 |
| 8 | < 3 | CCN(C)c1cc(-c2ccc3ncc4c(c3c2)n(-c2cn(C)nc2C)c(=O)n4C)cnc1C [Example 165, 1-(1,3-Dimethyl-1H-pyrazol-4-yl)-8-[5-(ethyl-methyl-amino)-6-methyl-pyridin-3-yl]-3-methyl-1,3-dihydro-imidazo[4,5-c]quinolin-2-one] | 1 |
| 70 | < 3 | Cc1nn(C(C)C)cc1-n1c(=O)n(C)c2cnc3ccc(-c4cnc(N)c(CO)c4)cc3c21 [Example 169.1, 8-(6-Amino-5-hydroxymethyl-pyridin-3-yl)-1-(1-isopropyl-3-methyl-1H-pyrazol-4-yl)-3-methyl-1,3-dihydro-imidazo[4,5-c]quinolin-2-one] | 5.63 |
| 15 | < 3 | Cc1nn(C)cc1-n1c(=O)n(C)c2cnc3ccc(-c4cncc(NC5CCC5)c4)cc3c21 [Example 172, 8-(5-Cyclobutylamino-pyridin-3-yl)-1-(1,3-dimethyl-1H-pyrazol-4-yl)-3-methyl-1,3-dihydro-imidazo[4,5-c]quinolin-2-one] | 1 |
| 50 | 4 | Cc1nn(C)cc1-n1c(=O)n(C)c2cnc3ccc(-c4cncc(N(C)C(C)C)c4)cc3c21 [Example 173, 1-(1,3-Dimethyl-1H-pyrazol-4-yl)-8-[5-(isopropyl-methyl-amino)-pyridin-3-yl]-3-methyl-1,3-dihydro-imidazo[4,5-c]quinolin-2-one] | 2 |
| 90 | 6 | Cc1nn(C)cc1-n1c(=O)n(C)c2cnc3ccc(-c4cncc(N5CCOCC5)c4)cc3c21 [Example 175.1, 1-(1,3-Dimethyl-1H-pyrazol-4-yl)-3-methyl-8-(5-morpholin-4-yl-pyridin-3-yl)-1,3-dihydro-imidazo[4,5-c]quinolin-2-one] | 1 |
| 85 | 15 | Cc1nn(C)cc1-n1c(=O)n(C)c2cnc3ccc(-c4cncc(N(C)C)c4)cc3c21 [Example 178, 8-(5-Dimethylamino-pyridin-3-yl)-1-(1,3-dimethyl-1H-pyrazol-4-yl)-3-methyl-1,3-dihydro-imidazo[4,5-c]quinolin-2-one] | 2 |
| 25 | 13 | Cc1nn(C)cc1-n1c(=O)n(C)c2cnc3ccc(-c4cncc(N5CCC5)c4)cc3c21 [Example 179, 8-(5-Azetidin-1-yl-pyridin-3-yl)-1-(1,3-dimethyl-1H-pyrazol-4-yl)-3-methyl-1,3-dihydro-imidazo[4,5-c]quinolin-2-one] | 10 |
| 24 | < 3 | CNc1cncc(-c2ccc3ncc4c(c3c2)n(-c2cn(C(C)C)nc2C)c(=O)n4C)c1 [Example 180.2, 1-(1-Isopropyl-3-methyl-1H-pyrazol-4-yl)-3-methyl-8-(5-methylamino-pyridin-3-yl)-1,3-dihydro-imidazo[4,5-c]quinolin-2-one] | 17 |
| 24 | 8 | CCOc1cc(-c2ccc3ncc4c(c3c2)n(-c2cn(C)nc2C)c(=O)n4C)cnc1CC [Example 187, 1-(1,3-Dimethyl-1H-pyrazol-4-yl)-8-(5-ethoxy-6-ethyl-pyridin-3-yl)-3-methyl-1,3-dihydro-imidazo[4,5-c]quinolin-2-one] | 1.89 |
| 41 | < 3 | CCc1ncc(-c2ccc3ncc4c(c3c2)n(-c2cn(C)nc2C)c(=O)n4C)cc1O [Example 188, 1-(1,3-Dimethyl-1H-pyrazol-4-yl)-8-(6-ethyl-5-hydroxy-pyridin-3-yl)-3-methyl-1,3-dihydro-imidazo[4,5-c]quinolin-2-one] | 8.15 |
| 88 | 34 | CCn1cc(-n2c(=O)n(C)c3cnc4ccc(-c5cnc(COC)c(OC(C)C)c5)cc4c32)c(C)n1 [Example 191.2, 1-(1-Ethyl-3-methyl-1H-pyrazol-4-yl)-8-(5-isopropoxy-6-methoxymethyl-pyridin-3-yl)-3-methyl-1,3-dihydro-imidazo[4,5-c]quinolin-2-one] | 5 |
| 72 | 6 | Cc1nn(C)cc1-n1c(=O)n(C)c2cnc3ccc(-c4cnc(CO)c(OC(CF)CF)c4)cc3c21 [Example 192, 1-(1,3-Dimethyl-1H-pyrazol-4-yl)-8-[5-(2-fluoro-1-fluoromethyl-ethoxy)-6-hydroxymethyl-pyridin-3-yl]-3-methyl-1,3-dihydro-imidazo[4,5-c]quinolin-2-one] | 5 |
